Assay results taken from BindingDB's records for doi:10.1007/bf02246453 (University of Turku, 1996).
Structures can show the parent of a compound that is named as a salt.

These compounds were tested against 5-hydroxytryptamine receptor 2A (Rattus norvegicus, UniProt P14842).
Sequence of 5-hydroxytryptamine receptor 2A (P14842 whole entry): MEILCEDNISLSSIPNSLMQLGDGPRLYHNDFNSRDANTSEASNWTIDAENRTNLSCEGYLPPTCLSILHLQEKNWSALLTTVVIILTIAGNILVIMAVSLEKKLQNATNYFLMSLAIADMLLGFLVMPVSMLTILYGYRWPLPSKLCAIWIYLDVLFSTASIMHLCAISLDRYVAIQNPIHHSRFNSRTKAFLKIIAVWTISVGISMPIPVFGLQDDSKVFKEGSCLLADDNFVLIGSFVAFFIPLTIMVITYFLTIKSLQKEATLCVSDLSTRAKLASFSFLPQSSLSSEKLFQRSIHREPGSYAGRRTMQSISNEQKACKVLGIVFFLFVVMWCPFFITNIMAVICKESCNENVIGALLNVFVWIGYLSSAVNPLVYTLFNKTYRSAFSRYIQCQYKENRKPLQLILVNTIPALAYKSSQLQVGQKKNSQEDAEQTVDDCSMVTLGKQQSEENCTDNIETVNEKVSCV

| Structure (SMILES) | Ki |
| --- | --- |
| CN(C)CCC=C1c2ccccc2CCc2ccccc21 | 0.0043 µM |

The compounds below were run against T1, 5-hydroxytryptamine receptor 2C (Rattus norvegicus, UniProt P08909).
T1 sequence (P08909 whole entry): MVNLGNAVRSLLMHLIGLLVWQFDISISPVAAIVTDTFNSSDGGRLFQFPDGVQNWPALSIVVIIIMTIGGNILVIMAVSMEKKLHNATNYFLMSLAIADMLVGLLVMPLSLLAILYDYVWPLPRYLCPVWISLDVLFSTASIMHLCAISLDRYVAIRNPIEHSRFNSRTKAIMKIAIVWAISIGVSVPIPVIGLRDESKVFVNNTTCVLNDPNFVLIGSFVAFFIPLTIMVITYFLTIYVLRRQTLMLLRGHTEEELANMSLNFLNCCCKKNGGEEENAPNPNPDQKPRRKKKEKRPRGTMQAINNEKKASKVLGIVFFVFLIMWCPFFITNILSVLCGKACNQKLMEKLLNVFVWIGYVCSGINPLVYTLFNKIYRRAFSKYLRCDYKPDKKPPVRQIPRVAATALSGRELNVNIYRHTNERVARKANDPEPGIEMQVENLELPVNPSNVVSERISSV

| Structure (SMILES) | Ki |
| --- | --- |
| CN(C)CCCN1c2ccccc2CCc2ccccc21 | 0.094 µM |
| CN(C)CCC=C1c2ccccc2CCc2ccccc21 | 0.0043 µM |
| O=c1n(CCCN2CCN(c3cccc(Cl)c3)CC2)nc2ccccn12 [2-{3-[4-(3-chlorophenyl)piperazin-1-yl]propyl}[1,2,4]triazolo[4,3-a]pyridin-3(2H)-one] | 0.193 µM |
| CN(C)CCCn1c2c(c3ccccc31)CCCCCC2 [CAS_5560-72-5] | 0.206 µM |
| CN(C)CCCC1(c2ccc(F)cc2)OCc2cc(C#N)ccc21 (stereo unspecified) [CITALOPRAM HYDROBROMIDE] | 0.269 µM |
| CNCCCN1c2ccccc2CCc2ccccc21 [Desmethylimipramine] | 0.244 µM |
| NCC[C@H](Oc1ccc(C(F)(F)F)cc1)c1ccccc1 [NORFLUOXETINE] | 0.157 µM |
| CNCCC=C1c2ccccc2CCc2ccccc21 [NORTRIPTYLINE] | 0.0085 µM |
| C#CCN(C)CCCOc1ccc(Cl)cc1Cl [US8633208, Clorgyline] | 1 µM |
| CN(C)C/C=C(/c1ccc(Br)cc1)c1cccnc1 [cis-[3-(4-Bromo-phenyl)-3-pyridin-3-yl-allyl]-dimethyl-amine;HCl] | 1 µM |
